Values of other authors as cited in patent US7141532B2, “Process for the preparation of a dry pesticidal composition containing a dicarboxylate component” (Monsanto Technology LLC, priority 2002, dated 2006).

Compound: O=C(O)C(=O)O [Oxalic acid]
- pK1 (first proton): about 1.25
- pK2 (second proton): about 4.29
